Measured values: paper PMC4899718, “Establishing Virulence Associated Polyphosphate Kinase 2 as a drug target for Mycobacterium tuberculosis” (Scientific Reports, 2016)

Key:
PPK-2 (MBP-PPK-2) [1] = biological target: T1, PPK-2 (MBP-PPK-2) (Mycobacterium tuberculosis, UniProt O05877)
T1 construct: gene ppk2

PPK-2 (MBP-PPK-2) [2] = biological target: T1, PPK-2 (MBP-PPK-2); test: luciferase-based ATP synthesis endpoint assay; assay type: biochemical

T1 sequence (O05877 whole entry, looked up): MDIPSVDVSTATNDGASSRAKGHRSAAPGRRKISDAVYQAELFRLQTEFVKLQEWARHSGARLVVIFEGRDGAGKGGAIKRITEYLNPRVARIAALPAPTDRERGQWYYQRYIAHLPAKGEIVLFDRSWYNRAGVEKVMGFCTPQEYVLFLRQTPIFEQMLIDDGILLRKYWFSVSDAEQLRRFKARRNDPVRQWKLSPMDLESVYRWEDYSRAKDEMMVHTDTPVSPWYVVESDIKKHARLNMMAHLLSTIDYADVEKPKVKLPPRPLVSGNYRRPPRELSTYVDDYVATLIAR

How did the “luciferase-based ATP quantification” value (PPK-2 (MBP-PPK-2) [1]) turn out when O=P(O)(O)OP(=O)(O)OP(=O)(O)O [PolyP3] was run?
Its value is “MBP-PPK-2 could also utilize short chain polyphosphates, PolyP3 as the phosphate donor”.

With CC1Oc2cc3c(-c4c(O)cc(O)c5c(O)c6c(cc45)OC(C)C(C)C6=O)c(O)cc(O)c3c(O)c2C(=O)C1C (stereo not drawn) [NSC-345647] as the compound, how does the inhibition at 100 µM (PPK-2 (MBP-PPK-2) [2]) read?
The inhibition at 100 µM was greater than 80%.

Which inhibition at 100 µM (PPK-2 (MBP-PPK-2) [2]) does the source give for CCOc1ccc(Nc2c3ccccc3nc3ccccc23)cc1 [NSC-30205] here?
Its inhibition at 100 µM is greater than 80%.

With Nc1ncnc2c1ncn2[C@@H]1O[C@H](COP(=O)(O)OP(=O)(O)O)[C@@H](O)[C@H]1O [ADP] as the compound, how does the “luciferase-based ATP quantification” value (PPK-2 (MBP-PPK-2) [1]) read?
Its value is “ATP synthetic activity of PPK-2 increased in the presence of both ADP and enzyme”.

Which inhibition at 100 µM (PPK-2 (MBP-PPK-2) [2]) does the source give for O=c1cc2oc3cc(O)c(O)cc3c(-c3ccccc3O)c-2cc1O [NSC-9037] here?
The inhibition at 100 µM was greater than 80%.

O=c1c(O)cccc2cc(O)c(O)c(O)c12 [NSC-35676] was tested. Which “% inhibition at 100 μM” value (PPK-2 (MBP-PPK-2) [2]; PolyP17 10 μM as phosphate donor, 10 mM MgCl2, pH 7.4, 37 °C, 10 min pre-incubation, luciferase counter-screened) did it give?
Its value is greater than 80%.
